# Source: US12697302B2, “Tricine and citric acid lipids” (Translate Bio, Inc., priority 2019, dated 2026)
# System: firefly luciferase (FFL) production in the lung
# Test: Delivery of firefly luciferase (FFL) mRNA by intratracheal administration, IVIS imaging of luciferase production in the lung
# Format: in vivo
# Conditions: lipid nanoparticles with FFL mRNA, cationic lipid, DMG-PEG2000, cholesterol, DOPE; single intratracheal aerosol administration; male CD1 mice; 24 hours after administration
# Procedure: Lipid nanoparticle formulations comprising FFL mRNA, cationic lipid, DMG-PEG2000, cholesterol and DOPE were administered to male CD1 mice (6-8 weeks old) by a single intratracheal aerosol administration via a Microsprayer® (50 ul/animal) while under anesthesia. At approximately 24 hours post-dose, the animals were dosed with luciferin at 150 mg/kg (60 mg/ml) by intraperitoneal injection at 2.5 ml/kg. After 5-15 minutes, all animals were imaged using an IVIS imaging system to measure luciferase production in the lung.
row,Compound,in vivo protein (FFL) production in the lung / luciferase activity
1,"CCCCCCCCOC(=O)CC(CC(=O)OCCCCCCCC)(OC(=O)CCN(C)C)C(=O)OCCCCCCCC [Compound 1, trioctyl 2-((3-(dimethylamino)propanoyl)oxy) propane-1,2,3-tricarboxylate]",high levels
2,CCCCCCCCCCCCCCOC(=O)CC(CC(=O)OCCCCCCCCCCCCCC)(OC(=O)CCN1CCCCC1)C(=O)OCCCCCCCCCCCCCC [Compound 16],high levels
3,"CCCCCCCC(=O)OCC(COC(=O)CCCCCCC)(COC(=O)CCCCCCC)N(CC(=O)OCCN(C)C)C(=O)CCCCCCC [Compound 177, 2-(N-(2-(2-(dimethylamino)ethoxy)-2-oxoethyl)octanamido)-2-((octanoyloxy)methyl) propane-1,3-diyl dioctanoate]",high levels
4,CCCCC/C=C\C/C=C\CCCCCCCCOC(=O)CC(CC(=O)OCCCCCCCC/C=C\C/C=C\CCCCC)(OC(=O)CCCN(C)C)C(=O)OCCCCCCCC/C=C\C/C=C\CCCCC [Compound 249],high levels
